Assay results taken from ChEMBL document CHEMBL1131554, “10-omega-phenylalkyl-9(10H)-anthracenones as inhibitors of keratinocyte growth with reduced membrane damaging properties” (Bioorg Med Chem Lett, 1998).

Key:
[1] = Compound was measured for lactate dehydrogenase (LDH) release in HaCaT cells after treatment with 2 uM; type: functional, Homo sapiens
[2] = In vitro for antiproliferate activity against HaCaT cells; type: functional, cell-based; conditions: Homo sapiens
[3] = Deoxyribose degradation as a measure of hydroxyl-radical generation.; type: functional
[4] = Partition coefficient (logP); type: physicochemical; conditions: octanol/water

| SMILES | LDH [1] | IC50 [2] | Activity (uM of MDA (mM of deoxyribose)-1) [3] | logP [4] |
| --- | --- | --- | --- | --- |
| O=C1c2c(O)cccc2Cc2cccc(O)c21 [ANTHRALIN] | 294 MU | 0.7 µM | – | – |
| O=C1c2c(O)cccc2C(CCCCc2ccccc2)c2cccc(O)c21 | – | < 5 µM | < 0.2 | 5.72 |
| O=C1c2c(O)cccc2C(Cc2ccncc2)c2cccc(O)c21 | 179 MU | 1.8 µM | 1.25 | 3.47 |
| O=C1c2c(O)cccc2C(CCc2ccc(O)cc2)c2cccc(O)c21 | 136 MU | 3.8 µM | 0.4 | 4.1 |
| COc1cc(CCC2c3cccc(O)c3C(=O)c3c(O)cccc32)cc(OC)c1OC | – | 4.1 µM | 0.97 | 4.37 |
| COc1ccc(CC(=O)C2c3cccc(O)c3C(=O)c3c(O)cccc32)cc1 | 143 MU | 1.1 µM | < 0.2 | 4.2 |
| O=C1c2c(O)cccc2C(CCc2cc(O)c(O)c(O)c2)c2cccc(O)c21 | 225 MU | > 5 µM | 2.3 | 3.09 |
| O=C1c2c(O)cccc2C(Cc2ccccc2)c2cccc(O)c21 | 150 MU | > 5 µM | 0.35 | – |
| COc1ccc(CCC2c3cccc(O)c3C(=O)c3c(O)cccc32)cc1OC | – | 3 µM | < 0.2 | 4.55 |
| O=C1c2c(O)cccc2C(CCc2ccc(O)c(O)c2)c2cccc(O)c21 | – | > 5 µM | 0.56 | 3.65 |
| O=C1c2c(O)cccc2C(CCCc2ccccc2)c2cccc(O)c21 | 130 MU | > 5 µM | < 0.2 | 5.51 |
| COc1ccc(CC2c3cccc(O)c3C(=O)c3c(O)cccc32)cc1 | 152 MU | > 5 µM | < 0.2 | 4.45 |
| O=C1c2c(O)cccc2C(CCc2ccccc2)c2cccc(O)c21 | – | < 5 µM | < 0.2 | 5.27 |
| O=C1c2c(O)cccc2C(Cc2ccc([N+](=O)[O-])cc2)c2cccc(O)c21 | 142 MU | < 5 µM | < 0.2 | 4.16 |
| COc1ccc(CCC2c3cccc(O)c3C(=O)c3c(O)cccc32)cc1 | 129 MU | 0.9 µM | < 0.2 | 5.07 |
